The subject of this experiment is MV-4-11 cells. The experiment in a line: Gene expression microarray analysis (Affymetrix PrimeView) and GSEA. The experiment is classed as cell-based, human. Set-up: RFU PODN (11730768_x_at) / Fold change /veh PODN (11730768_x_at) / RFU LINC00158 (11744669_a_at) / Fold change /veh LINC00158 (11744669_a_at) / RFU DUSP10 (11751237_a_at) / Fold change /veh DUSP10 (11751237_a_at) / RFU ID3 (11757404_x_at) / Fold change /veh ID3 (11757404_x_at) / RFU PLEKHG5 (11737974_s_at) / Fold change /veh PLEKHG5 (11737974_s_at) / RFU LRRC4B (11730491_at) / Fold change /veh LRRC4B (11730491_at) / RFU GIMAP4 (11747438_a_at) / Fold change /veh GIMAP4 (11747438_a_at) / RFU KRT8 (11758183_x_at) / Fold change /veh KRT8 (11758183_x_at) / RFU CNN1 (11734310_a_at) / Fold change /veh CNN1 (11734310_a_at) / RFU VPS37D (11726825_at) / Fold change /veh VPS37D (11726825_at) / RFU C10orf10 (11716522_x_at) / Fold change /veh C10orf10 (11716522_x_at) / RFU KIR2DL2 /// KIR2DL4 /// KIR2DL5A /// KIR2DL5B /// KIR2DS1 /// KIR2DS2 /// KIR2DS3 /// KIR2DS4 /// KIR3DL3 /// KIR3DL3 /// KIR3DS1 (11738374_at) / Fold change /veh KIR2DL2 /// KIR2DL4 /// KIR2DL5A /// KIR2DL5B /// KIR2DS1 /// KIR2DS2 /// KIR2DS3 /// KIR2DS4 /// KIR3DL3 /// KIR3DL3 /// KIR3DS1 (11738374_at) / RFU C1QL1 (11718748_at) / Fold change /veh C1QL1 (11718748_at) / RFU TMPRSS4 (11747572_a_at) / Fold change /veh TMPRSS4 (11747572_a_at) / RFU HAMP (11756126_x_at) / Fold change /veh HAMP (11756126_x_at) / RFU RNFT2 (11725882_a_at) / Fold change /veh RNFT2 (11725882_a_at) / RFU NR4A2 (11747474_a_at) / Fold change /veh NR4A2 (11747474_a_at) / RFU ABCC12 (11746883_a_at) / Fold change /veh ABCC12 (11746883_a_at) / RFU TMEM136 (11760407_x_at) / Fold change /veh TMEM136 (11760407_x_at) / RFU CLDN22 /// WWC2 (11732394_at) / Fold change /veh CLDN22 /// WWC2 (11732394_at) / RFU HLA-DPB1 (11760878_x_at) / Fold change /veh HLA-DPB1 (11760878_x_at) / RFU SPINT1 (11716480_a_at) / Fold change /veh SPINT1 (11716480_a_at) / RFU GAP43 (11754022_s_at) / Fold change /veh GAP43 (11754022_s_at) / RFU A4GNT (11735810_at) / Fold change /veh A4GNT (11735810_at) / RFU PRB3 (11715151_x_at) / Fold change /veh PRB3 (11715151_x_at) / RFU TUBB4B (11761932_at) / Fold change /veh TUBB4B (11761932_at) / RFU CAPN14 (11732068_a_at) / Fold change /veh CAPN14 (11732068_a_at) / RFU TMCC2 (11721928_a_at) / Fold change /veh TMCC2 (11721928_a_at) / RFU IRGQ (11745062_a_at) / Fold change /veh IRGQ (11745062_a_at) / RFU FAM174B (11720279_a_at) / Fold change /veh FAM174B (11720279_a_at) / RFU TMPRSS4 (11748680_a_at) / Fold change /veh TMPRSS4 (11748680_a_at) / RFU FAM212B (11763350_a_at) / Fold change /veh FAM212B (11763350_a_at) / RFU PLEKHG5 (11743358_a_at) / Fold change /veh PLEKHG5 (11743358_a_at) / RFU ZSCAN30 (11745921_a_at) / Fold change /veh ZSCAN30 (11745921_a_at) / RFU CMKLR1 (11741424_a_at) / Fold change /veh CMKLR1 (11741424_a_at) / RFU LOC101060620 /// MAPK8IP1 (11723275_at) / Fold change /veh LOC101060620 /// MAPK8IP1 (11723275_at) / RFU SPTSSB (11747773_x_at) / Fold change /veh SPTSSB (11747773_x_at) / RFU PRSS12 (11739890_at) / Fold change /veh PRSS12 (11739890_at) / RFU BIN1 (11741810_x_at) / Fold change /veh BIN1 (11741810_x_at) / RFU WNT11 (11732464_a_at) / Fold change /veh WNT11 (11732464_a_at) / RFU C10orf10 (11716521_a_at) / Fold change /veh C10orf10 (11716521_a_at) / RFU C5orf56 (11738089_at) / Fold change /veh C5orf56 (11738089_at) / RFU CYB561 (11721691_x_at) / Fold change /veh CYB561 (11721691_x_at) / RFU ANKRD19P (11752326_a_at) / Fold change /veh ANKRD19P (11752326_a_at) / RFU OR2T12 /// OR2T33 /// OR2T8 (11738714_s_at) / Fold change /veh OR2T12 /// OR2T33 /// OR2T8 (11738714_s_at) / RFU VCAN (11748164_a_at) / Fold change /veh VCAN (11748164_a_at) / RFU JSRP1 (11732532_at) / Fold change /veh JSRP1 (11732532_at) / RFU KRTAP10-11 (11738290_x_at) / Fold change /veh KRTAP10-11 (11738290_x_at) / RFU MYO3A (11730013_a_at) / Fold change /veh MYO3A (11730013_a_at) / RFU EBF3 (11725865_a_at) / Fold change /veh EBF3 (11725865_a_at) / RFU CAMK2N1 (11719241_x_at) / Fold change /veh CAMK2N1 (11719241_x_at) / RFU C5orf56 (11738088_a_at) / Fold change /veh C5orf56 (11738088_a_at) / RFU OLFML3 (11715873_a_at) / Fold change /veh OLFML3 (11715873_a_at) / RFU LOC100653217 /// NTM (11731650_a_at) / Fold change /veh LOC100653217 /// NTM (11731650_a_at) / RFU MAPK11 (11762145_a_at) / Fold change /veh MAPK11 (11762145_a_at) / RFU FIZ1 (11724087_x_at) / Fold change /veh FIZ1 (11724087_x_at) / RFU OASL (11726364_x_at) / Fold change /veh OASL (11726364_x_at) / RFU SOX15 (11748057_x_at) / Fold change /veh SOX15 (11748057_x_at) / RFU CD79A (11719716_a_at) / Fold change /veh CD79A (11719716_a_at) / RFU HIST1H1D (11736915_at) / Fold change /veh HIST1H1D (11736915_at) / RFU CASKIN2 (11723855_a_at) / Fold change /veh CASKIN2 (11723855_a_at) / RFU LOC730098 (11760151_x_at) / Fold change /veh LOC730098 (11760151_x_at) / RFU OR4N2 (11742367_at) / Fold change /veh OR4N2 (11742367_at) / RFU PRRT2 (11749266_a_at) / Fold change /veh PRRT2 (11749266_a_at) / RFU SNX32 (11753110_a_at) / Fold change /veh SNX32 (11753110_a_at) / RFU CDHR5 (11726645_a_at) / Fold change /veh CDHR5 (11726645_a_at) / RFU RCAN1 (11760418_a_at) / Fold change /veh RCAN1 (11760418_a_at) / RFU FAM167A (11723789_a_at) / Fold change /veh FAM167A (11723789_a_at) / RFU FAM26E (11764081_at) / Fold change /veh FAM26E (11764081_at) / RFU ISYNA1 (11749810_s_at) / Fold change /veh ISYNA1 (11749810_s_at) / RFU ACY1 (11761880_at) / Fold change /veh ACY1 (11761880_at) / RFU 11764098_at / Fold change /veh 11764098_at / RFU SAMD14 (11745864_x_at) / Fold change /veh SAMD14 (11745864_x_at) / RFU NPB (11741838_a_at) / Fold change /veh NPB (11741838_a_at) / RFU TMPRSS6 (11731388_a_at) / Fold change /veh TMPRSS6 (11731388_a_at) / RFU KRTAP10-2 (11738614_at) / Fold change /veh KRTAP10-2 (11738614_at) / RFU ARHGAP8 /// PRR5-ARHGAP8 (11727945_x_at) / Fold change /veh ARHGAP8 /// PRR5-ARHGAP8 (11727945_x_at) / RFU KRTAP5-7 /// NADSYN1 (11734609_at) / Fold change /veh KRTAP5-7 /// NADSYN1 (11734609_at) / RFU RASL12 (11751679_a_at) / Fold change /veh RASL12 (11751679_a_at) / RFU CDKN2B (11736163_a_at) / Fold change /veh CDKN2B (11736163_a_at) / RFU PRF1 (11729649_at) / Fold change /veh PRF1 (11729649_at) / RFU, ZNF638 /// ZNF638-IT1 / Fold change vs veh, ZNF638 /// ZNF638-IT1 / RFU, PANK3 / Fold change vs veh, PANK3 / RFU, SH3YL1 / Fold change vs veh, SH3YL1 / RFU, ZEB2 / Fold change vs veh, ZEB2 / RFU, NRIP1 / Fold change vs veh, NRIP1 / RFU, PTTG1IP / Fold change vs veh, PTTG1IP / RFU, CAPN2 / Fold change vs veh, CAPN2 / RFU, MED14 / Fold change vs veh, MED14 / RFU, SNORA58 / Fold change vs veh, SNORA58 / RFU, C1orf63 / Fold change vs veh, C1orf63 / RFU, LRRFIP1 / Fold change vs veh, LRRFIP1 / RFU, NDUFAF7 / Fold change vs veh, NDUFAF7 / RFU, SLC12A2 / Fold change vs veh, SLC12A2 / RFU, IBTK / Fold change vs veh, IBTK / RFU, ESF1 / Fold change vs veh, ESF1 / Fold change vs veh, TMEM50B / RFU, TAOK1 / Fold change vs veh, TAOK1 / RFU, ACBD3 / Fold change vs veh, ACBD3 / RFU, TMA16 / Fold change vs veh, TMA16 / RFU, RWDD3 / Fold change vs veh, RWDD3 / RFU, BCAT1 / Fold change vs veh, BCAT1 / RFU, EDEM3 / Fold change vs veh, EDEM3 / RFU, TMEM33 / Fold change vs veh, TMEM33 / RFU, WDR75 / Fold change vs veh, WDR75 / RFU, AHCTF1 / Fold change vs veh, AHCTF1 / RFU, TFRC / Fold change vs veh, TFRC / RFU, ZDHHC17 / Fold change vs veh, ZDHHC17 / RFU, NOM1 / Fold change vs veh, NOM1 / RFU, ARL8B / Fold change vs veh, ARL8B / RFU, ZBTB11 / Fold change vs veh, ZBTB11 / RFU, TAMM41 / Fold change vs veh, TAMM41 / RFU, KIAA1704 /// LOC100996395 / Fold change vs veh, KIAA1704 /// LOC100996395 / RFU, ING1 / Fold change vs veh, ING1 / RFU, TRMT61B / Fold change vs veh, TRMT61B / RFU, FUBP3 / Fold change vs veh, FUBP3 / RFU, TP53 / Fold change vs veh, TP53 / RFU, TNKS2 / Fold change vs veh, TNKS2 / RFU, ZFP14 / Fold change vs veh, ZFP14 / RFU, ACTR2 / Fold change vs veh, ACTR2 / RFU, PPP3R1 / Fold change vs veh, PPP3R1 / RFU, PIK3R1 / Fold change vs veh, PIK3R1 / RFU, HNRNPA1 / Fold change vs veh, HNRNPA1 / RFU, RNF170 / Fold change vs veh, RNF170 / RFU, ZNF28 / Fold change vs veh, ZNF28 / RFU, RNGTT / Fold change vs veh, RNGTT / RFU, OGT / Fold change vs veh, OGT / RFU, BRD1 / Fold change vs veh, BRD1 / RFU, MARS / Fold change vs veh, MARS / RFU, ZNF655 / Fold change vs veh, ZNF655 / RFU, FAHD1 / Fold change vs veh, FAHD1 / RFU, BDP1 / Fold change vs veh, BDP1 / RFU, LRRCC1 / Fold change vs veh, LRRCC1 / RFU, ARID1A / Fold change vs veh, ARID1A / RFU, ZNF146 / Fold change vs veh, ZNF146 / RFU, ZNF330 / Fold change vs veh, ZNF330 / RFU, GPN3 / Fold change vs veh, GPN3 / RFU, C9orf123 / Fold change vs veh, C9orf123 / RFU, N4BP2L2 / Fold change vs veh, N4BP2L2 / RFU, ARFIP1 / Fold change vs veh, ARFIP1 / RFU, FAM179B / Fold change vs veh, FAM179B / RFU, BCL10 / Fold change vs veh, BCL10 / RFU, UHRF1BP1L / Fold change vs veh, UHRF1BP1L / RFU, BET1 / Fold change vs veh, BET1 / RFU, CNOT2 / Fold change vs veh, CNOT2 / RFU, ZNF268 / Fold change vs veh, ZNF268 / Fold change vs veh, ZNF507 / RFU, DGCR2 / Fold change vs veh, DGCR2 / RFU, WDSUB1 / Fold change vs veh, WDSUB1 / Fold change vs veh, HSP90B1 /// MIR3652 / RFU, ADSS / Fold change vs veh, ADSS / RFU, GK / Fold change vs veh, GK / RFU, ZNF148 / Fold change vs veh, ZNF148 / RFU, TAF9 / Fold change vs veh, TAF9 / RFU, SLC1A5 / Fold change vs veh, SLC1A5 / RFU, SLMO2 / Fold change vs veh, SLMO2 / RFU, ABCC4 / Fold change vs veh, ABCC4 / RFU, LOC101060439 /// RAP1B / Fold change vs veh, LOC101060439 /// RAP1B / RFU, RFX7 / Fold change vs veh, RFX7 / RFU, GTPBP10 / Fold change vs veh, GTPBP10 / RFU, CNEP1R1 / Fold change vs veh, CNEP1R1 / RFU, BIVM-ERCC5 /// ERCC5 / Fold change vs veh, BIVM-ERCC5 /// ERCC5 / RFU, ILF3 / Fold change vs veh, ILF3 / RFU 11762660_at / Fold change /veh 11762660_at / RFU VCAN (11757783_s_at) / Fold change /veh VCAN (11757783_s_at) / RFU DDX43 (11728927_at) / Fold change /veh DDX43 (11728927_at) / RFU KRT8 (11758188_x_at) / Fold change /veh KRT8 (11758188_x_at) / RFU NKD1 (11759106_at) / Fold change /veh NKD1 (11759106_at) / RFU SRD5A1 (11742802_a_at) / Fold change /veh SRD5A1 (11742802_a_at) / RFU TPSAB1 /// TPSB2 (11721975_s_at) / Fold change /veh TPSAB1 /// TPSB2 (11721975_s_at) / RFU GSTM3 (11746129_a_at) / Fold change /veh GSTM3 (11746129_a_at) / RFU IL23R (11737362_x_at) / Fold change /veh IL23R (11737362_x_at) / RFU TMEM51 (11727254_a_at) / Fold change /veh TMEM51 (11727254_a_at) / RFU PIWIL2 (11732686_x_at) / Fold change /veh PIWIL2 (11732686_x_at) / RFU ORM1 (11744905_x_at) / Fold change /veh ORM1 (11744905_x_at) / RFU CCDC152 (11743942_at) / Fold change /veh CCDC152 (11743942_at) / RFU ECM1 (11717891_a_at) / Fold change /veh ECM1 (11717891_a_at) / RFU IL23R (11748794_a_at) / Fold change /veh IL23R (11748794_a_at) / RFU TNFAIP8L3 (11732012_x_at) / Fold change /veh TNFAIP8L3 (11732012_x_at) / RFU MBOAT4 (11741988_at) / Fold change /veh MBOAT4 (11741988_at) / RFU 11764193_at / Fold change /veh 11764193_at / RFU TMEM53 (11763286_at) / Fold change /veh TMEM53 (11763286_at) / RFU MAGEB2 (11727129_at) / Fold change /veh MAGEB2 (11727129_at) / RFU TMEM200A (11744735_a_at) / Fold change /veh TMEM200A (11744735_a_at) / RFU CCDC152 (11751479_a_at) / Fold change /veh CCDC152 (11751479_a_at) / RFU FAM211A (11726209_a_at) / Fold change /veh FAM211A (11726209_a_at) / RFU RGS16 (11746705_a_at) / Fold change /veh RGS16 (11746705_a_at) / RFU VCAN (11755009_s_at) / Fold change /veh VCAN (11755009_s_at) / RFU RHOB (11743442_s_at) / Fold change /veh RHOB (11743442_s_at) / RFU RGS16 (11720943_a_at) / Fold change /veh RGS16 (11720943_a_at) / RFU RGS16 (11720944_at) / Fold change /veh RGS16 (11720944_at) / RFU, VPS4B / Fold change vs veh, VPS4B / RFU, CREB1 / Fold change vs veh, CREB1 / RFU, DNAJC13 / Fold change vs veh, DNAJC13 / RFU, GNAQ / Fold change vs veh, GNAQ / RFU, CDK5R1 / Fold change vs veh, CDK5R1 / RFU, ZRANB3 / Fold change vs veh, ZRANB3 / RFU, CUL4A / Fold change vs veh, CUL4A / RFU, CCNY / Fold change vs veh, CCNY / RFU, UFL1 / Fold change vs veh, UFL1 / RFU, COG3 / Fold change vs veh, COG3 / RFU, DIAPH2 / Fold change vs veh, DIAPH2 / RFU, SKA2 / Fold change vs veh, SKA2 / RFU, AFF3 / Fold change vs veh, AFF3 / RFU, LMF1 / Fold change vs veh, LMF1 / RFU, IPO11 / Fold change vs veh, IPO11 / RFU, DFFB / Fold change vs veh, DFFB / RFU, FOXP1 / Fold change vs veh, FOXP1 / RFU, CARD8 / Fold change vs veh, CARD8 / RFU, STRN3 / Fold change vs veh, STRN3 / RFU, ADK / Fold change vs veh, ADK / RFU, RASSF2 / Fold change vs veh, RASSF2 / RFU, WIPF1 / Fold change vs veh, WIPF1 / RFU, LARP1B / Fold change vs veh, LARP1B / RFU, RASA1 / Fold change vs veh, RASA1 / RFU, RB1 / Fold change vs veh, RB1 / RFU, PPFIA1 / Fold change vs veh, PPFIA1 / RFU, MAT2A / Fold change vs veh, MAT2A / RFU, CCT5 / Fold change vs veh, CCT5 / RFU, WDR92 / Fold change vs veh, WDR92 / RFU, CUX1 / Fold change vs veh, CUX1 / RFU, TTC7A / Fold change vs veh, TTC7A / RFU, TMEM135 / Fold change vs veh, TMEM135 / RFU, DEPTOR / Fold change vs veh, DEPTOR / RFU, CPM / Fold change vs veh, CPM / RFU, DNAJB6 / Fold change vs veh, DNAJB6 / RFU, CACNA2D3 / Fold change vs veh, CACNA2D3 / RFU, DTX4 / Fold change vs veh, DTX4 / RFU, TFCP2 / Fold change vs veh, TFCP2 / RFU, GMCL1 /// GMCL1P1 / Fold change vs veh, GMCL1 /// GMCL1P1 / RFU, AEBP2 / Fold change vs veh, AEBP2 / RFU, SNHG1 /// SNORD22 /// SNORD25 /// SNORD26 /// SNORD27 /// SNORD28 /// SNORD29 /// SNORD31 / Fold change vs veh, SNHG1 /// SNORD22 /// SNORD25 /// SNORD26 /// SNORD27 /// SNORD28 /// SNORD29 /// SNORD31 / Fold change (Aza/veh), C12orf56 (ProbeSet 11735607_a_at) / Fold change (ACY-1035/veh), C12orf56 (ProbeSet 11735607_a_at) / Fold change (Aza/veh), FGFR1OP (ProbeSet 11751329_s_at) / Fold change (ACY-1035/veh), FGFR1OP (ProbeSet 11751329_s_at) / Fold change (Aza/veh), VPS36 (ProbeSet 11739960_a_at) / Fold change (ACY-1035/veh), VPS36 (ProbeSet 11739960_a_at) / RFU SYPL1 (11715823_x_at) / Fold change /veh SYPL1 (11715823_x_at) / RFU IGFBP7 (11715501_s_at) / Fold change /veh IGFBP7 (11715501_s_at) / RFU REEP3 (11722064_at) / Fold change /veh REEP3 (11722064_at) / RFU IGLL1 (11728026_x_at) / Fold change /veh IGLL1 (11728026_x_at): dose or concentration left out as unconfirmed. The settings on record: ProbeSet 11731610_x_at; LIST B.

Molecules are shown by their SMILES.

For `Nc1ccc(-c2cccs2)cc1NC(=O)c1ccc2c(c1)cc(C1CC1)n2CCN1CCOCC1` [ACY-1035], the “RFU, KIAA1704 /// LOC100996395” value was found to be 79.91 RFU.

The values above are taken from article PMC5218480 (PLoS ONE, 2017).
